Assay results published in PubChem BioAssay (NCI).
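Where inhibition never reached the appropriate level, the endpoint shown equals the highest concentration tested. Otherwise, values were interpolated linearly from a five-concentration, 48-hour dose response in 96-well plates. At the GI50, growth is halved. TGI marks complete inhibition of growth.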

Tests used:
Test in all cases: NCI tumour cell line growth inhibition, 48 h
[1] = system: OVCAR-4 ovarian
[2] = system: SNB-19 CNS
[3] = system: U251 CNS
[4] = system: RPMI-8226 leukemia
[5] = system: HT29 colon
[6] = system: K-562 leukemia
[7] = system: MOLT-4 leukemia
[8] = system: HOP-62 NSCLC
[9] = system: SK-MEL-5 melanoma
[10] = system: SF-539 CNS
[11] = system: NCI-H522 lung
[12] = system: PC-3 prostate
[13] = system: SW-620 colon
[14] = system: IGROV1 ovarian
[15] = system: MDA-N
[16] = system: SR leukemia
[17] = system: OVCAR-3 ovarian
[18] = system: BT-549 breast
[19] = system: NCI-H23 lung
[20] = system: CCRF-CEM leukemia
[21] = system: UACC-62 melanoma
[22] = system: MDA-MB-231 breast
[23] = system: HCT-15 colon
[24] = system: SF-268 CNS
[25] = system: A549 NSCLC
[26] = system: MCF7 breast
[27] = system: SNB-75 CNS
[28] = system: T-47D breast
[29] = system: NCI-H226 lung
[30] = system: TK-10 renal
[31] = system: HS 578T breast
[32] = system: NCI-H460 lung
[33] = system: ACHN renal
[34] = system: RXF 393 renal
[35] = system: CAKI-1 renal
[36] = system: COLO 205 colon
[37] = system: M14 melanoma
[38] = system: DU-145 prostate
[39] = system: OVCAR-5 ovarian
[40] = system: HCT-116 colon
[41] = system: SK-MEL-2 melanoma
[42] = system: MDA-MB-435
[43] = system: 786-0 renal
[44] = system: KM12 colon
[45] = system: MALME-3M melanoma
[46] = system: UACC-257 melanoma
[47] = system: SF-295 CNS
[48] = system: SK-MEL-28 melanoma
[49] = system: HOP-92 NSCLC
[50] = system: UO-31 renal
[51] = system: OVCAR-8 ovarian
[52] = system: HL-60(TB) leukemia
[53] = system: LOX IMVI melanoma
[54] = system: EKVX NSCLC
[55] = system: SK-OV-3 ovarian
[56] = system: HCC-2998 colon
[57] = system: A498 renal
[58] = system: NCI/ADR-RES ovarian
[59] = system: SN12C renal
[60] = system: M19-MEL melanoma
[61] = system: DMS 114 small cell lung
[62] = system: XF 498 CNS
[63] = system: DLD-1 colon
[64] = system: KM20L2 colon
[65] = system: LXFL 529 NSCLC
[66] = system: DMS 273 small cell lung
[67] = system: HOP-18 NSCLC
[68] = system: SNB-78 CNS

## C=C1C(=O)OC2CC(C)C(C(O)CC(C)O)=CCC12 (stereo not given)
[1]
  TGI: 42.2 µM
[2]
  TGI: > 100 µM
[3]
  TGI: 39.4 µM
[4]
  TGI: 34.2 µM
[5]
  TGI: 35.7 µM
[6]
  TGI: 37.1 µM
[7]
  TGI: 32.6 µM
[8]
  TGI: > 74.3 µM
[9]
  TGI: 41.2 µM
[10]
  TGI: 31.3 µM
[11]
  TGI: 3.29 µM
[12]
  TGI: 57 µM
[13]
  TGI: 37.6 µM
[14]
  TGI: 43.4 µM
[15]
  TGI: 42.3 µM
[16]
  TGI: 29.5 µM
[17]
  TGI: 25.2 µM
[18]
  TGI: 30.2 µM
[19]
  TGI: 33.3 µM
[20]
  TGI: 14.3 µM
[21]
  TGI: 44.2 µM
[22]
  TGI: 33.8 µM
[23]
  TGI: 41.4 µM
[24]
  TGI: 36.4 µM
[25]
  TGI: > 80.6 µM
[26]
  TGI: 28.1 µM
[27]
  TGI: 47.2 µM
[28]
  TGI: 23.6 µM
[29]
  TGI: 72.7 µM
[30]
  TGI: 23.3 µM
[31]
  TGI: 62 µM
[32]
  TGI: 46.6 µM
[33]
  TGI: 8.95 µM
[34]
  TGI: 30.5 µM
[35]
  TGI: 9.26 µM
[36]
  TGI: 24.6 µM
[37]
  TGI: 35 µM
[38]
  TGI: 30.4 µM
[39]
  TGI: 30.7 µM
[40]
  TGI: 21.9 µM
[41]
  TGI: 38.5 µM
[42]
  TGI: > 59.2 µM
[43]
  TGI: 30.2 µM
[44]
  TGI: 46.4 µM
[45]
  TGI: 21.9 µM
[46]
  TGI: 29.8 µM
[47]
  TGI: > 100 µM
[48]
  TGI: 23.1 µM
[49]
  TGI: 27.8 µM
[50]
  TGI: 30.7 µM
[51]
  TGI: 43.8 µM
[52]
  TGI: 13.5 µM
[53]
  TGI: 25.7 µM
[54]
  TGI: 28.6 µM
[55]
  TGI: > 100 µM
[56]
  TGI: 33.2 µM
[57]
  TGI: 32.1 µM
[58]
  TGI: 41 µM
[59]
  TGI: 33.1 µM

## C=C(C)C1CCC2(C)CC1c1c(c(C)cc3c1[nH]c1ccccc13)O2 (stereo not given)
[1]
  TGI: > 25 µM
[2]
  TGI: > 25 µM
[3]
  TGI: > 25 µM
[4]
  TGI: > 25 µM
[5]
  TGI: > 25 µM
[6]
  TGI: > 25 µM
[7]
  TGI: > 25 µM
[8]
  TGI: > 25 µM
[9]
  TGI: > 25 µM
[10]
  TGI: > 25 µM
[11]
  TGI: > 25 µM
[60]
  TGI: > 25 µM
[13]
  TGI: > 25 µM
[14]
  TGI: > 25 µM
[16]
  TGI: > 25 µM
[61]
  TGI: > 25 µM
[17]
  TGI: > 25 µM
[20]
  TGI: > 25 µM
[21]
  TGI: > 25 µM
[23]
  TGI: > 25 µM
[24]
  TGI: > 25 µM
[25]
  TGI: > 25 µM
[29]
  TGI: > 25 µM
[32]
  TGI: > 25 µM
[33]
  TGI: > 25 µM
[36]
  TGI: > 25 µM
[37]
  TGI: > 25 µM
[39]
  TGI: > 25 µM
[40]
  TGI: > 25 µM
[41]
  TGI: > 25 µM
[62]
  TGI: > 25 µM
[63]
  TGI: > 25 µM
[43]
  TGI: > 25 µM
[44]
  TGI: > 25 µM
[45]
  TGI: > 25 µM
[48]
  TGI: > 25 µM
[64]
  TGI: > 25 µM
[49]
  TGI: > 25 µM
[65]
  TGI: > 25 µM
[50]
  TGI: > 25 µM
[51]
  TGI: > 25 µM
[52]
  TGI: > 25 µM
[53]
  TGI: > 25 µM
[55]
  TGI: > 25 µM
[56]
  TGI: > 25 µM
[59]
  TGI: > 25 µM
[66]
  TGI: > 25 µM

## N=C1C(=N)c2ccccc2-c2ccccc21.N=C1C(=N)c2ccccc2-c2ccccc21.N=C1C(=N)c2ccccc2-c2ccccc21.[Cl-].[Ru+2]
[1]
  TGI: 2.85 µM
[2]
  TGI: 6.35 µM
[3]
  TGI: 3.08 µM
[4]
  TGI: 5.4 µM
[5]
  TGI: > 31.6 µM
[6]
  TGI: 4.68 µM
[7]
  TGI: 5.46 µM
[8]
  TGI: 8.97 µM
[9]
  GI50: 1.91 µM
  TGI: 3.71 µM
[10]
  TGI: 3.27 µM
[11]
  TGI: 2.84 µM
[60]
  GI50: 1.46 µM
  TGI: 2.86 µM
[13]
  TGI: 3.74 µM
[14]
  TGI: 5.01 µM
[16]
  TGI: 5.57 µM
[61]
  GI50: 1.63 µM
  TGI: 3.07 µM
[17]
  TGI: 3.08 µM
[19]
  TGI: 4.93 µM
[21]
  TGI: 3.5 µM
[24]
  TGI: 3.28 µM
[25]
  TGI: > 27.9 µM
[27]
  TGI: 4.25 µM
[32]
  TGI: 6.29 µM
[33]
  TGI: 3.29 µM
[67]
  GI50: 3.14 µM
  TGI: 7.76 µM
[34]
  TGI: 5.58 µM
[36]
  TGI: 6.87 µM
[37]
  TGI: 3.72 µM
[39]
  TGI: 18.6 µM
[40]
  TGI: 3.2 µM
[43]
  TGI: 28.5 µM
[44]
  TGI: > 68 µM
[45]
  GI50: 1.79 µM
  TGI: 3.29 µM
[46]
  TGI: 3.53 µM
[47]
  TGI: 3.23 µM
[68]
  GI50: 1.65 µM
  TGI: 3.88 µM
[48]
  TGI: 3.79 µM
[64]
  GI50: 5.37 µM
  TGI: 13.2 µM
[49]
  GI50: 1.6 µM
  TGI: 3.09 µM
[65]
  GI50: 1.61 µM
  TGI: 3.08 µM
[50]
  TGI: 4.71 µM
[51]
  TGI: 3.14 µM
[52]
  TGI: 3.76 µM
[53]
  TGI: 7.94 µM
[54]
  TGI: 3.41 µM
[55]
  TGI: 6.91 µM
[56]
  TGI: > 31.6 µM
[59]
  TGI: 2.94 µM
[66]
  GI50: 2.15 µM
  TGI: 5.45 µM
